From patent US8703796B2, “3H-imidazo [4, 5-B] pyridine-6-carboxamides as anti-inflammatory agents” (Boehringer Ingelheim International GmbH, priority 2008, dated 2014) come the findings set out here.

The test has as its target T1, recombinant human mPGES-1 (Homo sapiens, UniProt O14684).
T1 construct: made in house; host or cells: Rosetta E. coli (microsomal/membrane fraction)
T1 sequence (O14684 1-152): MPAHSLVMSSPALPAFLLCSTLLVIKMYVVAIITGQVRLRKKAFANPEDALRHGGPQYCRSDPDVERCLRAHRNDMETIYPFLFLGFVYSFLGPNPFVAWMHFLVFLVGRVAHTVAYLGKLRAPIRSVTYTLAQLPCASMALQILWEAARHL
Briefly: mPGES-1 inhibition, HTRF detection of PGE2. The format is biochemical. A digest of the protocol: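 PGE2 formed from PGH2 in one minute by E. coli-expressed microsomal enzyme (pH 7.4, 2.5 mM GSH) was measured by competitive HTRF against a synthetic PGE2 standard curve. Compounds were preincubated 25 min at room temperature.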

As for `Cn1c(Nc2c(Cl)cncc2Cl)nc2cc(C(=O)Nc3ccc(Br)cc3)c(OCCF)nc21` [Example 832, 2-(3,5-Dichloro-pyridin-4-ylamino)-5-(2-fluoro-ethoxy)-N-(4-bromo-phenyl)-3-methyl-3H-imidazo[4,5-b]pyridine-6-carboxamide], the inhibition (commonly the change of the read-out against control, counted positive when it falls) at 10 µM was 100%. Same read-out and setting: the figure for `CCCC[C@@H](C)NC(=O)c1cnc2[nH]c(Nc3c(Cl)cccc3Cl)nc2c1` [Example 517, (R)-2-(2,6-Dichlorophenylamino)-N-(hex-2-yl)-3H-imidazo[4,5-b]pyridine-6-carboxamide] is 100%; for `Cn1c(Nc2c(F)cccc2Cl)nc2cc(C(=O)N[C@H]3CC[C@H](C(F)(F)F)CC3)c(OCC(F)F)nc21` [Example 783, 2-(2-Chloro-6-fluoro-phenylamino)-5-(2,2-difluoro-ethoxy)-N-(trans-4-trifluoromethyl-cyclohexyl)-3-methyl-3H-imidazo[4,5-b]pyridine-6-carboxamide] it is 100%; for `CCOc1nc2[nH]c(Nc3c(Cl)cncc3Cl)nc2cc1C(=O)Nc1cc(C(F)(F)F)ccn1` [Example 845, 2-(3,5-Dichloro-pyridin-4-ylamino)-5-ethoxy-N-(4-trifluoromethyl-pyridin-2-yl)-3H-imidazo[4,5-b]pyridine-6-carboxamide] it is 99%. On to `COc1nc2c(cc1C(=O)NCc1ncccc1C(F)(F)F)nc(Nc1c(Cl)cccc1Cl)n2C` [Example 860, 2-(2,6-Dichloro-phenylamino)-5-methoxy-N-((3-trifluoromethyl-pyridin-2-yl)-methyl)-3-methyl-3H-imidazo[4,5-b]pyridine-6-carboxamide], for which the inhibition at 10 µM turned out to be 100%.

Take `O=C(Nc1cc(C(F)(F)F)ccn1)c1cc2nc(Nc3c(Cl)cc(F)cc3Cl)[nH]c2nc1OCC(F)F` [Example 821, 2-(2,6-Dichloro-4-fluoro-phenylamino)-5-(2,2-difluoro-ethoxy)-N-(4-trifluoromethyl-pyridin-2-yl)-3H-imidazo[4,5-b]pyridine-6-carboxamide]: the inhibition at 10 µM was 90%. As to `O=C(Nc1ccc(Br)cc1)c1cnc2[nH]c(Nc3c(Cl)cccc3Cl)nc2c1` [Example 401, N-(4-Bromophenyl)-2-(2,6-dichlorophenylamino)-3H-imidazo[4,5-b]pyridine-6-carboxamide], the inhibition at 10 µM worked out at 100%. On to `COc1nc2c(cc1C(=O)NCc1ccccc1C(F)(F)F)nc(Nc1c(Cl)cccc1Cl)n2C` [Example 861, 2-(2,6-Dichloro-phenylamino)-5-methoxy-N-(2-trifluoromethyl-benzyl)-3-methyl-3H-imidazo[4,5-b]pyridine-6-carboxamide], for which the inhibition at 10 µM was 100%. For `Cn1c(Nc2c(F)cccc2C(F)(F)F)nc2cc(C(=O)N[C@H]3CC[C@H](C(F)(F)F)CC3)c(OCC(F)F)nc21` [Example 780, 2-(2-Fluoro-6-trifluoromethyl-phenylamino)-5-(2,2-difluoro-ethoxy)-N-(trans-4-trifluoromethyl-cyclohexyl)-3-methyl-3H-imidazo[4,5-b]pyridine-6-carboxamide], the inhibition at 1 µM came out at 100%.

Take `CCCCCCCNC(=O)c1cnc2c(c1)nc(Nc1c(Cl)cccc1Cl)n2C` [Example 448, 2-(2,6-Dichlorophenylamino)-N-heptyl-3-methyl-3H-imidazo[4,5-b]pyridine-6-carboxamide]: the inhibition at 10 µM came out at 100%. For the molecule `CC(=O)N(C)CCOc1nc2[nH]c(Nc3c(Cl)cncc3Cl)nc2cc1C(=O)NCC(F)(F)C(F)(F)C(F)(F)C(F)(F)F` [Example 809, 2-(3,5-Dichloro-pyridin-4-ylamino)-5-(2-(acetyl-methyl-amino)-ethoxy)-N-(2,2,3,3,4,4,5,5,5-nonafluoro-pentyl)-3H-imidazo[4,5-b]pyridine-6-carboxamide], the inhibition at 10 µM was determined as 100%. Same read-out and setting: the value for `O=C(NCC(F)(F)C(F)(F)C(F)(F)C(F)(F)F)c1cc2nc(Nc3c(Cl)cncc3Cl)[nH]c2nc1OCC(F)F` [Example 807, 2-(3,5-Dichloro-pyridin-4-ylamino)-5-(2,2-difluoro-ethoxy)-N-(2,2,3,3,4,4,5,5,5-nonafluoro-pentyl)-3H-imidazo[4,5-b]pyridine-6-carboxamide] was 90%; that for `Cn1c(Nc2c(F)cccc2Cl)nc2cc(C(=O)N[C@H]3CC[C@H](C)CC3)cnc21` [Example 486, 2-(2-Chloro-6-fluorophenylamino)-3-methyl-N-((1r,4r)-4-methycyclohexyl)-3H-imidazo[4,5-b]pyridine-6-carboxamide] was 100%. The same measure, in the same setting: the value for `O=C(Nc1cc(C(F)(F)F)ccn1)c1cc2nc(Nc3c(Cl)cc(F)cc3Cl)[nH]c2nc1OCC(F)(F)F` [Example 819, 2-(2,6-Dichloro-4-fluoro-phenylamino)-5-(2,2,2-trifluoro-ethoxy)-N-(4-trifluoromethyl-pyridin-2-yl)-3H-imidazo[4,5-b]pyridine-6-carboxamide] was 96%. Turning to `CCCC(CCC)NC(=O)c1cnc2c(c1)nc(Nc1c(Cl)cccc1Cl)n2C` [Example 473, 2-(2,6-Dichlorophenylamino)-N-(hept-4-yl)-3-methyl-3H-imidazo[4,5-b]pyridine-6-carboxamide], the inhibition at 10 µM amounted to 99%. Still for that read-out and setting: the figure for `CCCCCC[C@H](C)NC(=O)c1cnc2c(c1)nc(Nc1c(Cl)cccc1Cl)n2C` [Example 471, (S)-2-(2,6-Dichlorophenylamino)-3-methyl-N-(oct-2-yl)-3H-imidazo[4,5-b]pyridine-6-carboxamide] is 99%.

Take `Cn1c(Nc2ccccc2C(F)(F)F)nc2cc(C(=O)Nc3ccc(Br)cc3)c(OCC(F)F)nc21` [Example 772, N-(4-Bromo-phenyl)-2-(2-trifluoromethyl-phenylamino)-5-(2,2-difluoroethoxy)-3-methyl-3H-imidazo[4,5-b]pyridine-6-carboxamide]: the inhibition at 1 µM is 100%.

For the molecule `COCCOc1nc2[nH]c(Nc3c(Cl)cc(F)cc3Cl)nc2cc1C(=O)N[C@H]1CC[C@H](C(F)(F)F)CC1` [Example 867, 2-(2,6-Dichloro-4-fluoro-phenylamino)-5-(2-methoxy-ethoxy)-N-(trans-4-trifluoromethyl-cyclohexyl)-3H-imidazo[4,5-b]pyridine-6-carboxamide], the inhibition at 10 µM was found to be 100%. Still for that read-out and setting: the figure for `Cn1c(Nc2c(Cl)cc(F)cc2Cl)nc2cc(C(=O)Nc3ccc(Br)cc3)c(OCC(F)(F)F)nc21` [Example 816, 2-(2,6-Dichloro-4-fluoro-phenylamino)-5-(2,2,2-trifluoro-ethoxy)-N-(4-bromo-phenyl)-3-methyl-3H-imidazo[4,5-b]pyridine-6-carboxamide] is 97%. Regarding `COCCOc1nc2c(cc1C(=O)N[C@H]1CC[C@H](C(F)(F)F)CC1)nc(Nc1c(Cl)cc(F)cc1Cl)n2C` [Example 869, 2-(2,6-Dichloro-4-fluoro-phenylamino)-5-(2-methoxy-ethoxy)-N-(trans-4-trifluoromethyl-cyclohexyl)-3-methyl-3H-imidazo[4,5-b]pyridine-6-carboxamide], the inhibition at 10 µM was 100%. Regarding `O=C(N[C@H]1CC[C@H](C(F)(F)F)CC1)c1cc2nc(Nc3c(Cl)cncc3Cl)[nH]c2nc1OCC(F)F` [Example 862, 2-(3,5-Dichloro-pyridin-4-ylamino)-5-(2,2-difluoro-ethoxy)-N-(trans-4-trifluoromethyl-cyclohexyl)-3H-imidazo[4,5-b]pyridine-6-carboxamide], the inhibition at 10 µM is 99%. As for `O=C(NCC(F)(F)C(F)(F)C(F)(F)C(F)(F)F)c1cc2nc(Nc3c(Cl)cc(F)cc3Cl)[nH]c2nc1OCC(F)(F)F` [Example 829, 2-(2,6-Dichloro-4-fluoro-phenylamino)-5-(2,2,2-trifluoro-ethoxy)-N-(2,2,3,3,4,4,5,5,5-nonafluoropentyl)-3H-imidazo[4,5-b]pyridine-6-carboxamide], the inhibition at 10 µM stood at 100%. On the same count and under the same terms, the figure for `O=C(Nc1ccc(Br)cc1)c1cc2nc(Nc3c(Cl)cncc3Cl)[nH]c2nc1OCC(F)(F)F` [Example 858, 2-(3,5-Dichloro-pyridin-4-ylamino)-5-(2,2,2-trifluoro-ethoxy)-N-(4-bromo-phenyl)-3H-imidazo[4,5-b]pyridine-6-carboxamide] is 100%; for `O=C(N[C@H]1CC[C@H](C(F)F)CC1)c1cnc2[nH]c(Nc3c(Cl)cccc3Cl)nc2c1` [Example 535, 2-(2,6-Dichlorophenylamino)-N-((1r,4r)-4-(difluoromethyl)cyclohexyl)-3H-imidazo[4,5-b]pyridine-6-carboxamide] it is 100%.

On to `Cn1c(Nc2c(Cl)cc(F)cc2Cl)nc2cc(C(=O)Nc3cc(C(F)(F)F)ccn3)c(OCC(F)(F)F)nc21` [Example 815, 2-(2,6-Dichloro-4-fluoro-phenylamino)-5-(2,2,2-trifluoro-ethoxy)-N-(4-trifluoromethyl-pyridin-2-yl)-3-methyl-3H-imidazo[4,5-b]pyridine-6-carboxamide], for which the inhibition at 10 µM is 100%. On the same count and under the same terms, the figure for `CC1(C)CCCC(NC(=O)c2cnc3[nH]c(Nc4c(Cl)cccc4Cl)nc3c2)C1` (stereo not drawn) [Example 469, 2-(2,6-Dichlorophenylamino)-N-(3,3-dimethylcyclohexyl)-3H-imidazo[4,5-b]pyridine-6-carboxamide] is 100%. As to `Cn1c(Nc2c(Cl)cccc2C(F)(F)F)nc2cc(C(=O)N[C@H]3CC[C@H](C(F)(F)F)CC3)c(OCC(F)F)nc21` [Example 777, 2-(2-Chloro-6-trifluoromethyl-phenylamino)-5-(2,2-difluoro-ethoxy)-N-(trans-4-trifluoromethyl-cyclohexyl)-3-methyl-3H-imidazo[4,5-b]pyridine-6-carboxamide], the inhibition at 1 µM was found to be 98%.
